Measurements as given in patent publication US20150290200A1, “INTRACELLULAR KINASE INHIBITORS” (Pharmacyclics Inc., priority 2006, published 2015).

Experiments:
ITK kinase domain = target: T1, ITK kinase domain (Homo sapiens, UniProt Q08881); test: In vitro kinase assay (HITHUNTER enzyme fragment complementation), ITK; type: biochemical; settings: Table 8; wild type ITK kinase domain; read-out: IC50 wild-type ITK
T1 construct: N-terminally His-tagged ITK kinase domain (amino acids 352-617); His (N); made in house
T1 sequence (Q08881 352-617): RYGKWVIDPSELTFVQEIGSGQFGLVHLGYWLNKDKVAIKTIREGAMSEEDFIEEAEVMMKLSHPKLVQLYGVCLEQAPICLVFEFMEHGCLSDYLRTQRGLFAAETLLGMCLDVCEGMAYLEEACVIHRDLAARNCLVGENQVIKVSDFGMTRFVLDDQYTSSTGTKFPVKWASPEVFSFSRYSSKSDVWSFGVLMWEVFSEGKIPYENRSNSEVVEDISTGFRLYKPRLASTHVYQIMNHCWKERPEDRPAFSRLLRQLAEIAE
Description: Compounds were screened using the HITHUNTER™ enzyme fragment complementation method (Discoverx). Briefly, a recombinantly produced, N-terminally His-tagged ITK kinase domain (amino acids 352-617) was incubated with various concentrations of individual compounds. ATP and substrate were added, and the kinase reaction was allowed to proceed for 2-16 hours. Commercially available detection reagents were added and allowed to react for 2-4 hours. The reaction was evaluated by luminescence. Initial results were confirmed using full-length recombinant ITK protein.
(§1) In order to confirm the mechanism by which compounds depicted herein interact with the kinase domain of Tec and EGFR kinases, we created a point mutant of the ITK kinase domain, whereby the key amino acid, namely C442 was mutated to alanine. The protein was expressed in a commercial baculovirus expression system using the manufacturer's general protocol (Invitrogen, pBlueBac). Protein was expressed and purified using standard techniques. […] While the activity of WT-ITK was inhibited by compounds depicted in this application, the same compounds had no activity towards the C442A mutant kinase domain.

C442A-ITK kinase domain = target: T2, C442A-ITK kinase domain (Homo sapiens, UniProt Q08881, C442A); test: In vitro kinase assay, C442A point mutant of ITK kinase domain; type: biochemical; settings: Table 8
T2 construct: we created a point mutant of the ITK kinase domain; made in house; host or cells: baculovirus expression system (Invitrogen, pBlueBac)
T2 sequence (Q08881 363-615 C442A limits assumed): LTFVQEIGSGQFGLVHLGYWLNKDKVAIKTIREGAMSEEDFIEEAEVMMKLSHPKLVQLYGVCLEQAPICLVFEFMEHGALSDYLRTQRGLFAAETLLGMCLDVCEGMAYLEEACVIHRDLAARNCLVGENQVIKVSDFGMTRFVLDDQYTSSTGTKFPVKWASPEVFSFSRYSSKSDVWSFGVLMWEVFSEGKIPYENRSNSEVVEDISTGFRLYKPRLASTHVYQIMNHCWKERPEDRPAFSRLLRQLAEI
Source text: as §1

An IC50 (ITK kinase domain) of 11 nM and an IC50 (C442A-ITK kinase domain) of over 10000 nM were found for `CN(C)C1CCN(CCC(=O)c2ccc3ccccc3c2)C1` (centres unmarked) [drawing 257] in this work.
